In patent US7034036B2, “Inhibitors of ABC drug transporters at the blood-brain barrier” (Pain Therapeutics, Inc., priority 2000, dated 2006):
Entries after “also recorded” stand apart in the source; their conditions may differ.

Key:
PGP1a = assay: Vanadate-sensitive PGP ATPase activity in PGP membranes; format: biochemical
Procedure: The test substances were incubated in the membranes and supplemented with MgATP, with and without sodium orthovanadate present. Orthovanadate inhibits PGP by trapping MgADP in the nucleotide binding site. Thus, the ATPase activity measured in the presence of orthovanadate represents non-PGP ATPase activity and was subtracted from the activity generated without orthovanadate to yield vanadate-sensitive ATPase activity.
ATPase assays were conducted in 96-well microtiter plates. A 0.06 ml reaction mixture containing 40 μg PGP membranes, test substance, and 4 mM MgATP, in buffer containing 50 mM Tris-MES, 2 mM EGTA, 50 mM KCl, 2 mM dithiothreitol, and 5 mM sodium azide, plus organic solvent was incubated at 37° C. for 20 minutes. […] Identical reaction mixtures containing 100 μM sodium orthovanadate were assayed in parallel. The reactions were stopped by the addition of 30 μl of 10% SDS+Antifoam A. The incubations were followed with addition of 200 μl of 35 mM Ammonium Molybdate in 15 mM Zinc Acetate:10% Ascorbic Acid (1:4) and incubated for an additional 20 minutes at 37° C. Additionally, 0.06 ml aliquots of potassium phosphate standards prepared in the buffer described above, were incubated in the plates containing the test and control substances, with SDS and detection reagent added. The liberation of inorganic phosphate was detected by its absorbance at 800 nm and quantitated by comparing the absorbance to a phosphate standard curve. The concentration dependence of the PGP was analyzed for evidence of saturation of PGP-ATPase activity, and apparent kinetic parameters were calculated by non-linear regression.

mice [1] = assay: Tolerance to oxycodone in mice, parallel experiments; format: in vivo
mice [2] = assay: Tail flick anti-nociception, naltrexone begun at day 6 in mice dosed daily with morphine (Groups A, B); format: in vivo; conditions: morphine 3 mg/kg daily
Procedure: 40 male mice were randomized into 5 groups of eight. All mice were administered single 3 mg/kg morphine daily (b.i.d.), beginning on Day 1.
In a second series of experiments, 40 female mice were randomized into 5 groups of eight. All mice were administered single 3 mg/kg morphine daily (b.i.d.), beginning on Day 1.
3 mg/kg of morphine was administered as a single bolus dose to each mouse on group 1 on a daily basis. Mice in Group 2 were also administered 3 mg/kg morphine daily.

mice [3] = assay: Tail flick anti-nociception, naltrexone given with morphine from day 1 (Groups C, D, combined analysis); format: in vivo; set-up: Enhancement of Latency (tail flick) / Enhancement of Latency by Naltrexone (tail flick): unit not given here
Procedure: In a third series of experiments, 40 male mice were randomized into 5 groups of eight. All mice were administered single 3 mg/kg morphine daily (b.i.d.), beginning on Day 1.
In a final series of experiments, 40 female mice were randomized into 5 groups of eight. All mice were administered single 3 mg/kg morphine daily (b.i.d.), beginning on Day 1.

Compound: O=C1CC[C@@]2(O)[C@H]3Cc4ccc(O)c5c4[C@@]2(CCN3CC2CC2)[C@H]1O5 [Naltrexone, naltrexone]
- Vanadate-sensitive ATPase Activity (PGP1a; 100 μM): 4.6 nmol/mg/min
- Inhibition of the ATPase associated with PGP1a (PGP1a; semi-quantitative assay): shown to inhibit
- Development of tolerance to oxycodone (mice [1]; female mice, 1 or 5 mg/kg oxycodone with 1 pg/kg, 1 ng/kg or 1 μg/kg naltrexone or 1 pg/kg nor-BNI): None of the mice developed tolerance
- Development of tolerance to oxycodone (mice [1]; male mice, 0.1 mg/kg oxycodone plus 1 ng/kg naltrexone, 1 ng/kg nalmefene or 1 pg/kg nor-BNI): did not develop tolerance
- Naltrexone effect on tail flick latency (mice [2]; female mice, naltrexone 3-3000 ng/kg b.i.d. from day 6, Days 6, 8, 10): significantly different from zero in enhancing latency
- Effect on morphine tolerance (mice [2]; morphine-tolerant mice, naltrexone 3 ng/kg daily from Day 6): broke the tolerance; also recorded: breaks tolerance
- Enhancement of Latency by Naltrexone (tail flick) (mice [3]; Table 15, combined analysis (title prints Female Mice), Group 2: morphine 3 mg/kg + naltrexone 3 ng/kg b.i.d., Day 1): 12.8
- Enhancement of Latency by Naltrexone (tail flick) (mice [3]; Table 15, combined analysis (title prints Female Mice), Group 2: morphine 3 mg/kg + naltrexone 3 ng/kg b.i.d., Day 3): 9.3
- Enhancement of Latency by Naltrexone (tail flick) (mice [3]; Table 15, combined analysis (title prints Female Mice), Group 2: morphine 3 mg/kg + naltrexone 3 ng/kg b.i.d., Day 5): 5.9
- Enhancement of Latency by Naltrexone (tail flick) (mice [3]; Table 15, combined analysis (title prints Female Mice), Group 2: morphine 3 mg/kg + naltrexone 3 ng/kg b.i.d., Day 8): 5.8
- Enhancement of Latency by Naltrexone (tail flick) (mice [3]; Table 15, combined analysis (title prints Female Mice), Group 2: morphine 3 mg/kg + naltrexone 3 ng/kg b.i.d., Day 10): 3.5
- Enhancement of Latency by Naltrexone (tail flick) (mice [3]; Table 15, combined analysis (title prints Female Mice), Group 3: morphine 3 mg/kg + naltrexone 30 ng/kg b.i.d., Day 1): 12.4
- Enhancement of Latency by Naltrexone (tail flick) (mice [3]; Table 15, combined analysis (title prints Female Mice), Group 3: morphine 3 mg/kg + naltrexone 30 ng/kg b.i.d., Day 3): 10.0
- Enhancement of Latency by Naltrexone (tail flick) (mice [3]; Table 15, combined analysis (title prints Female Mice), Group 3: morphine 3 mg/kg + naltrexone 30 ng/kg b.i.d., Day 5): 7.2
- Enhancement of Latency by Naltrexone (tail flick) (mice [3]; Table 15, combined analysis (title prints Female Mice), Group 3: morphine 3 mg/kg + naltrexone 30 ng/kg b.i.d., Day 8): 4.9
- Enhancement of Latency by Naltrexone (tail flick) (mice [3]; Table 15, combined analysis (title prints Female Mice), Group 3: morphine 3 mg/kg + naltrexone 30 ng/kg b.i.d., Day 10): 6.6
- Enhancement of Latency by Naltrexone (tail flick) (mice [3]; Table 15, combined analysis (title prints Female Mice), Group 4: morphine 3 mg/kg + naltrexone 300 ng/kg b.i.d., Day 1): 15.6
- Enhancement of Latency by Naltrexone (tail flick) (mice [3]; Table 15, combined analysis (title prints Female Mice), Group 4: morphine 3 mg/kg + naltrexone 300 ng/kg b.i.d., Day 3): 12.7
- Enhancement of Latency by Naltrexone (tail flick) (mice [3]; Table 15, combined analysis (title prints Female Mice), Group 4: morphine 3 mg/kg + naltrexone 300 ng/kg b.i.d., Day 5): 6.8
- Enhancement of Latency by Naltrexone (tail flick) (mice [3]; Table 15, combined analysis (title prints Female Mice), Group 4: morphine 3 mg/kg + naltrexone 300 ng/kg b.i.d., Day 8): 4.8
- Enhancement of Latency by Naltrexone (tail flick) (mice [3]; Table 15, combined analysis (title prints Female Mice), Group 4: morphine 3 mg/kg + naltrexone 300 ng/kg b.i.d., Day 10): 6.0
- Enhancement of Latency by Naltrexone (tail flick) (mice [3]; Table 15, combined analysis (title prints Female Mice), Group 5: morphine 3 mg/kg + naltrexone 3000 ng/kg b.i.d., Day 1): 12.9
- Enhancement of Latency by Naltrexone (tail flick) (mice [3]; Table 15, combined analysis (title prints Female Mice), Group 5: morphine 3 mg/kg + naltrexone 3000 ng/kg b.i.d., Day 3): 11.3
- Enhancement of Latency by Naltrexone (tail flick) (mice [3]; Table 15, combined analysis (title prints Female Mice), Group 5: morphine 3 mg/kg + naltrexone 3000 ng/kg b.i.d., Day 5): 7.7
- Enhancement of Latency by Naltrexone (tail flick) (mice [3]; Table 15, combined analysis (title prints Female Mice), Group 5: morphine 3 mg/kg + naltrexone 3000 ng/kg b.i.d., Day 8): 6.2
- Enhancement of Latency by Naltrexone (tail flick) (mice [3]; Table 15, combined analysis (title prints Female Mice), Group 5: morphine 3 mg/kg + naltrexone 3000 ng/kg b.i.d., Day 10): 7.0
- Enhancement of Latency by Naltrexone (tail flick) (mice [3]; female mice, Group 2: morphine 3 mg/kg + naltrexone 3 ng/kg b.i.d. from day 1, Day 1): 12.2
- Enhancement of Latency by Naltrexone (tail flick) (mice [3]; female mice, Group 2: morphine 3 mg/kg + naltrexone 3 ng/kg b.i.d. from day 1, Day 3): 11.0
- Enhancement of Latency by Naltrexone (tail flick) (mice [3]; female mice, Group 2: morphine 3 mg/kg + naltrexone 3 ng/kg b.i.d. from day 1, Day 5): 4.3
- Enhancement of Latency by Naltrexone (tail flick) (mice [3]; female mice, Group 2: morphine 3 mg/kg + naltrexone 3 ng/kg b.i.d. from day 1, Day 7): 6.1
- Enhancement of Latency by Naltrexone (tail flick) (mice [3]; female mice, Group 2: morphine 3 mg/kg + naltrexone 3 ng/kg b.i.d. from day 1, Day 10): 4.4
- Enhancement of Latency by Naltrexone (tail flick) (mice [3]; female mice, Group 2: morphine 3 mg/kg + naltrexone 3 ng/kg b.i.d. from day 1, Day 11, single bolus 10 μg/kg naltrexone in addition): −1.0
- Enhancement of Latency by Naltrexone (tail flick) (mice [3]; female mice, Group 3: morphine 3 mg/kg + naltrexone 30 ng/kg b.i.d. from day 1, Day 1): 12.4
- Enhancement of Latency by Naltrexone (tail flick) (mice [3]; female mice, Group 3: morphine 3 mg/kg + naltrexone 30 ng/kg b.i.d. from day 1, Day 3): 10.7
- Enhancement of Latency by Naltrexone (tail flick) (mice [3]; female mice, Group 3: morphine 3 mg/kg + naltrexone 30 ng/kg b.i.d. from day 1, Day 5): 6.9
- Enhancement of Latency by Naltrexone (tail flick) (mice [3]; female mice, Group 3: morphine 3 mg/kg + naltrexone 30 ng/kg b.i.d. from day 1, Day 7): 2.4
- Enhancement of Latency by Naltrexone (tail flick) (mice [3]; female mice, Group 3: morphine 3 mg/kg + naltrexone 30 ng/kg b.i.d. from day 1, Day 10): 9.3
- Enhancement of Latency by Naltrexone (tail flick) (mice [3]; female mice, Group 3: morphine 3 mg/kg + naltrexone 30 ng/kg b.i.d. from day 1, Day 11, single bolus 10 μg/kg naltrexone in addition): −0.7
- Enhancement of Latency by Naltrexone (tail flick) (mice [3]; female mice, Group 4: morphine 3 mg/kg + naltrexone 300 ng/kg b.i.d. from day 1, Day 1): 15.0
